Experiments:
[1] = target: T1, human SGLT2 (Homo sapiens, UniProt P31639); assay: Assay for inhibitory effects on human SGLT2 activity (uptake of methyl-α-D-glucopyranoside); assay type: cell-based; settings: inhibition of uptake of 14C-labeled methyl-α-D-glucopyranoside (1 mM) in CS2-5E cells (CHO-K1) stably expressing human SGLT2, 37° C., 1 hour
T1 construct: expressed in transfected cells
T1 sequence (P31639 1-672): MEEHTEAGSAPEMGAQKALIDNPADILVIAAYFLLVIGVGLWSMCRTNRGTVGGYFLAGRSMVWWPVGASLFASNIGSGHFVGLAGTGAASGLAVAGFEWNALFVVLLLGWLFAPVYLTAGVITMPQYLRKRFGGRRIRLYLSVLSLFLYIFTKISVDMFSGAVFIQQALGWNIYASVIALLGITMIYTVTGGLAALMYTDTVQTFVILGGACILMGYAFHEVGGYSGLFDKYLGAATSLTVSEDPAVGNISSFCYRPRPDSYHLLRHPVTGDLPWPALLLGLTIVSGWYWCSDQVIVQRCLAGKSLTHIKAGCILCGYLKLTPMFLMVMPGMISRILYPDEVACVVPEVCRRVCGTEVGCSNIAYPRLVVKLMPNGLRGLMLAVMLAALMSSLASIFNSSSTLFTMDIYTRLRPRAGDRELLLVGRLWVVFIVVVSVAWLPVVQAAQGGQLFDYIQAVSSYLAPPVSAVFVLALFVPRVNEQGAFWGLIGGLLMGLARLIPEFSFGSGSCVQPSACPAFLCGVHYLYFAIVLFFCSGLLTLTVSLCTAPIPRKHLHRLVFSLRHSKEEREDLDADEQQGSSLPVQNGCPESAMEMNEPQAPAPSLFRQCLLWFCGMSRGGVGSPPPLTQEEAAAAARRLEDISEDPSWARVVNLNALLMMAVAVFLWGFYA
Description: Assay for Inhibitory Effects on Human SGLT2 Activity
1) Cloning and Construction of the Vector Expressing Human SGLT2
(§1) The cDNA library was prepared for PCR amplification by reverse transcription from total RNA deprived from human kidney (Ori gene) using oligo-dT as a primer. Using this cDNA library as a template, the DNA fragment coding 2 to 2039 bp of human SGLT2 (ACCESSION: M95549, M95299), which was reported by R. G. Wells et al., was amplified by PCR method and inserted into the multi-cloning site of pcDNA3.1(−) (Invitrogen). The DNA sequence inserted was perfectly matched to the previously reported sequence.
2) Establishment of Cell Line Stably Expressing Human SGLT2
(§2) The expression vector of human SGLT2 was digested by Sca I into a linear DNA. The linear DNA was transfected into CHO-K1 cells by means of lipofection (Effectene Transfection Reagent: QIAGEN). Neomycin resistant cell lines were selected by culture in the medium containing G418 (1 mg/mL, LIFE TECHNOLOGIES), and then the activity against the uptake of methyl-α-D-glucopyranoside was measured by the method described below. […] CS2-5E cells were cultured in the presence of G418 at 200 μg/mL.
3) Measurement of the Inhibitory Activity Against the Uptake of Methyl-α-D-glucopyranoside (α-MG)
CS2-5E cells were seeded into a 96-well culture plate at a density of 3×10^4 cells/well and cultured for 2 days, and were used in the uptake assay. A mixture of non-labeled (Sigma) and ^14C-labeled α-MG (Amersham Pharmacia Biotech) was added to the uptake buffer (pH 7.4; containing 140 mM sodium chloride, 2 mM potassium chloride, 1 mM calcium chloride, 1 mM magnesium chloride, 10 mM 2-[4-(2-hydroxyethyl)-1-piperazinyl]ethane sulfonic acid and 5 mM tris(hydroxymethyl)aminomethane) at the final concentration of 1 mM. […] Radioactivity was measured by means of micro-scintillation counter TopCount (Packard). One hundred % was set to the difference between the uptake in the control group and the basal uptake, and the uptake of methyl α-D-glucopyranoside at each drug concentration were calculated. […]

[2] = target: T2, human SGLT1 (Homo sapiens, UniProt P13866); assay: Assay for inhibitory effects on human SGLT1 activity (uptake of methyl-α-D-glucopyranoside); assay type: cell-based; settings: inhibition of uptake of 14C-labeled methyl-α-D-glucopyranoside (1 mM) in CS1-5-11D cells stably expressing human SGLT1, 37° C., 1 hour
T2 construct: expressed in transfected cells
T2 sequence (P13866 1-664): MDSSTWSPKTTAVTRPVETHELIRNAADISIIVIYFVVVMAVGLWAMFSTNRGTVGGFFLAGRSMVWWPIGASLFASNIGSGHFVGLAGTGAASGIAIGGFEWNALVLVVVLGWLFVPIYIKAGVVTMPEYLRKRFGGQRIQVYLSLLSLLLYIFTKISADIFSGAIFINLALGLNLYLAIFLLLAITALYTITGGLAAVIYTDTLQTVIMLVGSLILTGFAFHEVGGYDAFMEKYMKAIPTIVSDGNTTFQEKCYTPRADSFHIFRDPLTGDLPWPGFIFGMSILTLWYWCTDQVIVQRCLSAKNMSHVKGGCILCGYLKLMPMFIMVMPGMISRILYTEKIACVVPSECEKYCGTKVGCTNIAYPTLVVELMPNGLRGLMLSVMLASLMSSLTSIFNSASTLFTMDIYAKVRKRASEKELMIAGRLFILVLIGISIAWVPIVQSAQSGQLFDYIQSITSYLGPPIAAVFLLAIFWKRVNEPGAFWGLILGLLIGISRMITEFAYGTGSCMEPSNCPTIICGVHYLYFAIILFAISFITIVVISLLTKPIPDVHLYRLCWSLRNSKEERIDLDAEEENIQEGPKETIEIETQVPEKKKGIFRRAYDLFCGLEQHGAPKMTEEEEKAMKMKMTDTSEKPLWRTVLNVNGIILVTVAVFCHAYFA
Description: Assay for Inhibitory Effects on Human SGLT1 Activity
1) Cloning and Construction of the Vector Expressing Human SGLT1
as §1, with “small intestine” for “kidney”, “1” for “2”, “2005” for “2039”, “SGLT1” for “SGLT2”, “M24847),” for “M95549, M95299),”, “Hediger” for “R. G. Wells”
2) Establishment of Cell Line Stably Expressing Human SGLT1
as §2, with “SGLT1” for “SGLT2”, “[…]” for “CHO-K1”, “methyl-αD-glucopyranoside” for “methyl-α-D-glucopyranoside”, “CS1-5-11D” for “CS2-5E”, “μg/mL. […]” for “μg/mL.”
CS1-5-11D cells were seeded into a 96-well culture plate at a density of 3×10^4 cells/well and cultured for 2 days, and were used in the uptake assay. […] Radioactivity was measured by means of micro-scintillation counter TopCount (Packard). […]

Compound | IC50 [1] [µM] | IC50 [2] [µM]
OC[C@H]1O[C@@H](Oc2cc(O)cc3occ(CCc4ccccc4)c23)[C@H](O)[C@@H](O)[C@@H]1O [Example 7, 4-(β-D-Glucopyranosyloxy)-6-hydroxy-3-(2-phenylethyl)benzofuran] | – | 0.015
OC[C@H]1O[C@@H](Oc2cccc3occ(CCc4ccc(OCCCNC(CO)(CO)CO)cc4)c23)[C@H](O)[C@@H](O)[C@@H]1O [Example 24, 4-(β-D-Glucopyranosyloxy)-3-[2-(4-{3-[2-hydroxy-1,1-bis(hydroxymethyl)ethylamino]propoxy}phenyl)ethyl]benzofuran] | – | 0.025
OC[C@H]1O[C@@H](Oc2cccc3occ(CCc4ccncc4)c23)[C@H](O)[C@@H](O)[C@@H]1O [Example 43, 4-(β-D-Glucopyranosyloxy)-3-[2-(4-pyridyl)ethyl]benzofuran] | 0.012 | –

The next lines start with the values.

IC50 [1] [µM] | IC50 [2] [µM] | Compound
0.006 | – | OC[C@H]1O[C@@H](Oc2cccc3occ(CCc4ccccc4)c23)[C@H](O)[C@@H](O)[C@@H]1O [Example 2, 4-(β-D-Glucopyranosyloxy)-3-(2-phenylethyl)benzofuran]
0.041 | – | Cc1ccccc1CCc1coc2cccc(O[C@@H]3O[C@H](CO)[C@@H](O)[C@H](O)[C@H]3O)c12 [Example 3, 4-(β-D-Glucopyranosyloxy)-3-[2-(2-methylphenyl)ethyl]-benzofuran]

— patent US7566699B2, “Fused heterocyclic derivative, medicinal composition containing the same, and medicinal use thereof” (Kissei Pharmaceutical Co., Ltd., priority 2003, dated 2009)
